Earlier results on 1 substance are cited in publication PMC3580849 (Bioorganic & medicinal chemistry letters, 2011).

This series deals with Human M1 fibroblasts. The following applies: positive control, previously determined.

Consider “H-KDLLEQKRAAVDTYC-NH2 [65–79*0401, H-Lys-Asp-Leu-Leu-Glu-Gln-Lys-Arg-Ala-Ala-Val-Asp-Thr-Tyr-Cys-NH2]”, for which the “optimal concentration for activation of NO production” value is 50 µM.
